Assay results: patent publication US20210122730A1, “GLUCOCORTICOID RECEPTOR MODULATORS” (ORIC Pharmaceuticals, Inc., priority 2017, published 2021)

What was measured:
PR = biological target: T1, PR (Homo sapiens, UniProt P06401); assay: In Vitro PR Luciferase Reporter Assay (antagonist mode, CHO-K1-PR-MMTV-Luc reporter cells); format: cell-based; details: antagonist assay with 20 nM Progesterone, 18-24 hours, read-out: PR antagonism IC50
T1 construct: expressed in transfected cells; host or cells: CHO-K1
T1 sequence (P06401 1-933): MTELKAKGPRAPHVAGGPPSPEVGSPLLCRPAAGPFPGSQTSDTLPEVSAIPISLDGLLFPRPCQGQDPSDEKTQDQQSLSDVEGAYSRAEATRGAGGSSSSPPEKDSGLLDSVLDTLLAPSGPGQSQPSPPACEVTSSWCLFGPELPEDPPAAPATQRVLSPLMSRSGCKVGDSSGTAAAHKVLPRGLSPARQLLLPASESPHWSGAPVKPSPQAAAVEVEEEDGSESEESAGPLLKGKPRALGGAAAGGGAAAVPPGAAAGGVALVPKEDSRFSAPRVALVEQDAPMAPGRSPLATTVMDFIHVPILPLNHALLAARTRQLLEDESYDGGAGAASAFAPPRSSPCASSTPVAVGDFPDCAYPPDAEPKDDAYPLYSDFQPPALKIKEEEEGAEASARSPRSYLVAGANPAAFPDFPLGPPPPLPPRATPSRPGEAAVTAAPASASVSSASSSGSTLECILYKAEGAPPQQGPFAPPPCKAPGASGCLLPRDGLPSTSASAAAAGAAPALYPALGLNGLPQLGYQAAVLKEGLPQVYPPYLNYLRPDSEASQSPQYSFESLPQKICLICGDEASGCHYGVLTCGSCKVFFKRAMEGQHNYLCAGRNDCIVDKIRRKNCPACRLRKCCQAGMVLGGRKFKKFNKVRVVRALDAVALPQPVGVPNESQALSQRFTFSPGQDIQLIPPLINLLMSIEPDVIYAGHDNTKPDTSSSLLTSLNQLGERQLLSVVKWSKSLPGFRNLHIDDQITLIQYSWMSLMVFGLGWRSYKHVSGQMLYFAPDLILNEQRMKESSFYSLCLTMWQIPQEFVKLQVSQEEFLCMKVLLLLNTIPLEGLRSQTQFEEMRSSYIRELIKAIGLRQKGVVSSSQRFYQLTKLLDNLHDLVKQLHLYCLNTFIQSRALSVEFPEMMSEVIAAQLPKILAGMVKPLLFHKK
Description: Example C: In Vitro PR Luciferase Reporter Assay
Cell Line: CHO-KI-PR-MMTV-Luc reporter cells
Culture Media: DMEM (with phenol red)+1000FBS
Assay Media: DMEM (without phenol red)+1000CSS
Culture CHO-Kl-PR-MMTV-Luc reporter cells in 15 cm plates in Culture Media at conditions less than 90% confluence.
Prepared 200×DMSO 1:8 serial dilutions of control and test compounds in 96-well non-sterile V bottom plate in DMSO, 8 serial dilutions for each compound.
Prepared 5× Assay Media diluted compound serial dilutions in 96-well non-sterile V bottom plate: Add 97.5 μL/well of Assay Media into 96-well then add 2.5 μl of 200× concentration of compounds and mix well.
Added compounds: 5 μl of assay media diluted compounds were added to appropriate wells and followed a quick spin (1000 rpm, 10 sec) to bring media and cells to the bottom of plate. The plates were covered with SealMate film to avoid evaporation and placed in 37° C. incubator for approximately 18-24 hours.
Read plates: Equilibrated appropriate amount of Promega One-Glo luciferase reagent to room temperature. Removed the plates from incubator and added 25 μL of One-Glo luciferase reagent/well by multiple channel pipette and read the plates with Tecan F500 luminometer within 3 minutes.
The ability of exemplary compounds disclosed herein to inhibit PR activity was quantified and the respective IC50 value was determined. Table 4 provides the cellular IC50 values of exemplary compounds disclosed herein.

CYP2C8 = biological target: T2, CYP2C8 (Homo sapiens, UniProt P10632); assay: CYP Inhibition Assay (CYP2C8, human liver microsomes, paclitaxel substrate); format: in vitro ADME; details: pH 7.4; pooled human liver microsomes 0.1 mg/mL, probe substrate paclitaxel
T2 construct: Pooled human microsomes were obtained from Sekisui XenoTech, KS; tissue Sekisui XenoTech, KS; host or cells: pooled human liver microsomes
T2 sequence (P10632 1-490): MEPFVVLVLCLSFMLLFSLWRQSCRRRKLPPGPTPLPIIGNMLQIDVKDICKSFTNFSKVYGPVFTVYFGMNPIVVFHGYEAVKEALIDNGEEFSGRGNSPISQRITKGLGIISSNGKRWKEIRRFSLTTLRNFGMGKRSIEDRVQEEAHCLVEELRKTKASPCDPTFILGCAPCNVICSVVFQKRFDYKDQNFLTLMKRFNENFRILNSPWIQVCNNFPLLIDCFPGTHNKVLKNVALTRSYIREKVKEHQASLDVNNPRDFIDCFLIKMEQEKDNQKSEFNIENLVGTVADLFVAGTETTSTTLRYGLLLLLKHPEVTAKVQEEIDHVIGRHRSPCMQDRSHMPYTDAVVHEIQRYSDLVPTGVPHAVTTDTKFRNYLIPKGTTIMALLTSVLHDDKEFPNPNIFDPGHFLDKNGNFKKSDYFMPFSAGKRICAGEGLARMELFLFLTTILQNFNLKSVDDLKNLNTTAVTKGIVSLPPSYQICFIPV
Procedure, shortened: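 Pooled human liver microsomes (0.1 mg/mL) in 50 mM potassium phosphate pH 7.4 with compound, started with 1 mM NADPH, 5 min at 37° C, duplicate.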

| Compound | IC50 (PR) [µM] | inhibition at 5 min (CYP2C8) [%] |
| --- | --- | --- |
| Cn1cc(S(=O)(=O)C[C@H]2CCC3=Cc4c(cnn4-c4ccc(F)cc4)C[C@]3(C(=O)c3cc(C(F)(F)F)ccn3)C2)cn1 (single isomer, unassigned) [Example 118] | > 5 | ≤ 25 |
| CN([C@H]1CCC2=Cc3c(cnn3-c3ccc(F)cc3)C[C@]2(C(=O)c2cc(C(F)(F)F)ccn2)C1)S(=O)(=O)c1ccc(F)cc1 [Example 5, 4-Fluoro-N-((4aS,6S)-1-(4-fluorophenyl)-4a-(4-(trifluoromethyl)picolinoyl)-4,4a,5,6,7,8-hexahydro-1H-benzo[f]indazol-6-yl)-N-methylbenzenesulfonamide] | > 5 | 25 to 50 |
| Cn1cc(S(=O)(=O)N(C2CC2)[C@H]2CCC3=Cc4c(cnn4-c4ccc(F)cc4)C[C@]3(C(=O)c3cc(C(F)(F)F)ccn3)C2)cn1 [Example 88, N-cyclopropyl-N-((4aS,6S)-1-(4-fluorophenyl)-4a-(4-(trifluoromethyl)picolinoyl)-4,4a,5,6,7,8-hexahydro-1H-benzo[f]indazol-6-yl)-1-methyl-1H-pyrazole-4-sulfonamide] | > 5 | 25 to 50 |
| CN([C@H]1CCC2=Cc3c(cnn3-c3ccc(F)cc3)C[C@]2(C(=O)c2cc(C(F)(F)F)ccn2)C1)S(=O)(=O)c1ccn(C)n1 [Example 98, N-((4aS,6S)-1-(4-fluorophenyl)-4a-(4-(trifluoromethyl)picolinoyl)-4,4a,5,6,7,8-hexahydro-1H-benzo[f]indazol-6-yl)-N,1-dimethyl-1H-pyrazole-3-sulfonamide] | 3.47 | 25 to 50 |
| Cn1cc(S(=O)(=O)N(CC2CC2)[C@H]2CCC3=Cc4c(cnn4-c4ccc(F)cc4)C[C@]3(C(=O)c3cc(C(F)(F)F)ccn3)C2)cn1 [Example 103, N-(cyclopropylmethyl)-N-((4aS,6S)-1-(4-fluorophenyl)-4a-(4-(trifluoromethyl)picolinoyl)-4,4a,5,6,7,8-hexahydro-1H-benzo[f]indazol-6-yl)-1-methyl-1H-pyrazole-4-sulfonamide] | > 5 | 25 to 50 |
| Cn1ccc(S(=O)(=O)N(CC(F)(F)F)[C@H]2CCC3=Cc4c(cnn4-c4ccc(F)cc4)C[C@]3(C(=O)c3cc(C(F)(F)F)ccn3)C2)n1 [Example 111, N-((4aS,6S)-1-(4-Fluorophenyl)-4a-(4-(trifluoromethyl)picolinoyl)-4,4a,5,6,7,8-hexahydro-1H-benzo[f]indazol-6-yl)-1-methyl-N-(2,2,2-trifluoroethyl)-1H-pyrazole-3-sulfonamide] | > 5 | 25 to 50 |
| Cn1ccc(S(=O)(=O)[C@H]2CCC3=Cc4c(cnn4-c4ccc(F)cc4)C[C@]3(C(=O)c3cc(C(F)(F)F)ccn3)C2)n1 [Example 113, ((4aS,6S)-1-(4-Fluorophenyl)-6-((1-methyl-1H-pyrazol-3-yl)sulfonyl)-1,4,5,6,7,8-hexahydro-4aH-benzo[f]indazol-4a-yl)(4-(trifluoromethyl)pyridin-2-yl)methanone] | > 5 | ≤ 25 |
| Cn1ccc(S(=O)(=O)N(C2CC2)[C@H]2CCC3=Cc4c(cnn4-c4ccc(F)cc4)C[C@]3(C(=O)c3cc(C(F)(F)F)ccn3)C2)n1 [Example 138, N-cyclopropyl-N-((4aS,6S)-1-(4-fluorophenyl)-4a-(4-(trifluoromethyl)picolinoyl)-4,4a,5,6,7,8-hexahydro-1H-benzo[f]indazol-6-yl)-1-methyl-1H-pyrazole-3-sulfonamide] | > 5 | 50 to 75 |
| O=C(c1ncc(C(F)(F)F)s1)[C@]12Cc3cnn(-c4ccc(F)cc4)c3C=C1CC[C@H](N(C1CC1)S(=O)(=O)c1ccc(F)cc1)C2 [Example 177, N-cyclopropyl-4-fluoro-N-((4aS,6S)-1-(4-fluorophenyl)-4a-(5-(trifluoromethyl)thiazole-2-carbonyl)-4,4a,5,6,7,8-hexahydro-1H-benzo[f]indazol-6-yl)benzenesulfonamide] | > 5 | ≤ 25 |
| Cn1ccc(S(=O)(=O)N(CC2CC2)[C@H]2CCC3=Cc4c(cnn4-c4ccc(F)cc4)C[C@]3(C(=O)c3ncc(C(F)(F)F)s3)C2)n1 [Example 179, N-(cyclopropylmethyl)-N-((4aS,6S)-1-(4-fluorophenyl)-4a-(5-(trifluoromethyl)thiazole-2-carbonyl)-4,4a,5,6,7,8-hexahydro-1H-benzo[f]indazol-6-yl)-1-methyl-1H-pyrazole-3-sulfonamide] | > 5 | 25 to 50 |
| CC(C)N([C@H]1CCC2=Cc3c(cnn3-c3ccc(F)cc3)C[C@]2(C(=O)c2cc(C(F)(F)F)ccn2)C1)S(=O)(=O)c1ccn(C)n1 [Example 186, N-((4aS,6S)-1-(4-fluorophenyl)-4a-(4-(trifluoromethyl)picolinoyl)-4,4a,5,6,7,8-hexahydro-1H-benzo[f]indazol-6-yl)-N-isopropyl-1-methyl-1H-pyrazole-3-sulfonamide] | > 5 | 50 to 75 |
| CC(C)N(C(=O)c1cnn(C)c1)[C@H]1CCC2=Cc3c(cnn3-c3ccc(F)cc3)C[C@]2(C(=O)c2ncc(C(F)(F)F)s2)C1 [Example 211, N-((4aS,6S)-1-(4-fluorophenyl)-4a-(5-(trifluoromethyl)thiazole-2-carbonyl)-4,4a,5,6,7,8-hexahydro-1H-benzo[f]indazol-6-yl)-N-isopropyl-1-methyl-1H-pyrazole-4-carboxamide] | > 5 | 25 to 50 |
| Cn1ccc(S(=O)(=O)N(C2CC(F)(F)C2)[C@H]2CCC3=Cc4c(cnn4-c4ccc(F)cc4)C[C@]3(C(=O)c3cc(C(F)(F)F)ccn3)C2)n1 [Example 227, N-(3,3-difluorocyclobutyl)-N-((4aS,6S)-1-(4-fluorophenyl)-4a-(4-(trifluoromethyl)picolinoyl)-4,4a,5,6,7,8-hexahydro-1H-benzo[f]indazol-6-yl)-1-methyl-1H-pyrazole-3-sulfonamide] | > 5 | 25 to 50 |
| O=C(c1cc(Cl)ccn1)[C@]12Cc3cnn(-c4ccc(F)cc4)c3C=C1CC[C@H](N(C1CC1)S(=O)(=O)c1ccc(F)cc1)C2 [Example 232, N-((4aS,6S)-4a-(4-chloropicolinoyl)-1-(4-fluorophenyl)-4,4a,5,6,7,8-hexahydro-1H-benzo[f]indazol-6-yl)-N-cyclopropyl-4-fluorobenzenesulfonamide] | > 5 | 25 to 50 |
| Cn1cc(S(=O)(=O)N(CC(C)(C)O)[C@H]2CCC3=Cc4c(cnn4-c4ccc(F)cc4)C[C@]3(C(=O)c3cc(F)ccn3)C2)cn1 [Example 248, N-((4aS,6S)-1-(4-fluorophenyl)-4a-(4-fluoropicolinoyl)-4,4a,5,6,7,8-hexahydro-1H-benzo[f]indazol-6-yl)-N-(2-hydroxy-2-methylpropyl)-1-methyl-1H-pyrazole-4-sulfonamide] | > 5 | ≤ 25 |
